Measurements as given in ChEMBL document CHEMBL6078687 (J Med Chem, 2024).

Key:
Influenza A virus [1] = experiment: microbe, parasite or virus in culture; conditions: A/PR/8/34 H1N1, MDCK, 48 h
Influenza A virus [2] = experiment: microbe, parasite or virus in culture; conditions: A/Goose/Guangdong/SH7/2013 H5N1, CEF, 48 h
[3] = Cytotoxicity against MDCK cells incubated for 48 hrs by MTT assay; assay type: toxicity, cell-based, Canis lupus familiaris; conditions: dog
Influenza A virus [4] = experiment: Antiviral activity against Influenza A virus A/WSN/67/05 H3N2 infected in MDCK cells assessed as inhibition of plaque formation measured after 2 days; conditions: A/WSN/67/05 H3N2, MDCK, 48 h
[5] = Cytotoxicity against CEF cells incubated for 48 hrs by CCK8 assay; assay type: toxicity, cell-based, Gallus gallus; conditions: chicken
[6] = Inhibition of neuraminidase in Influenza A virus A/Goose/Guangdong/SH7/2013 H5N1 using MUNANA as substrate incubated for 40 mins by […] based assay
Influenza A virus [7] = experiment: microbe, parasite or virus in culture; conditions: A/Goose/Jiangsu/1306/2014 H5N8, CEF, 48 h
[8] = Inhibition of neuraminidase in Influenza A virus A/Babol/36/2005 H3N2 using MUNANA as substrate incubated for 40 mins by […] based assay
[9] = Acute toxicity in Kunming mouse assessed as signs of disheveled fur at 1000 mg/kg, IG measured for 1 week; assay type: organism-based; conditions: in vivo, po, 168 h, time 1 weeks
[10] = MRT (0 to t) in Sprague-Dawley rat at 2 mg/kg, iv measured for 15 to 1440 mins by LC-MS/MS analysis; assay type: ADME, organism-based; conditions: in vivo, time 15-1440 min
[11] = Half life in Sprague-Dawley rat at 20 mg/kg, po measured for 15 to 1440 mins by LC-MS/MS analysis; assay type: ADME, organism-based; conditions: in vivo, time 15-1440 min
[12] = MRT (0 to infinity) in Sprague-Dawley rat at 2 mg/kg, iv measured for 15 to 1440 mins by LC-MS/MS analysis; assay type: ADME, organism-based; conditions: in vivo, time 15-1440 min
[13] = MRT (0 to infinity) in Sprague-Dawley rat at 20 mg/kg, po measured for 15 to 1440 mins by LC-MS/MS analysis; assay type: ADME, organism-based; conditions: in vivo, time 15-1440 min
[14] = MRT (0 to t) in Sprague-Dawley rat at 20 mg/kg, po measured for 15 to 1440 mins by LC-MS/MS analysis; assay type: ADME, organism-based; conditions: in vivo, time 15-1440 min
[15] = Cmax in Sprague-Dawley rat at 20 mg/kg, po measured for 15 to 1440 mins by LC-MS/MS analysis; assay type: ADME, organism-based; conditions: in vivo, time 15-1440 min
[16] = Tmax in Sprague-Dawley rat at 2 mg/kg, iv measured for 15 to 1440 mins by LC-MS/MS analysis; assay type: ADME, organism-based; conditions: in vivo, time 15-1440 min
[17] = Metabolic stability in human liver microsomes assessed as compound remaining incubated for 60 mins by LC-MS/MS analysis; assay type: ADME, Microsome; conditions: 1 h
[18] = Acute toxicity in Kunming mouse assessed as increase in body weight at 1000 mg/kg, IG measured for 1 week; assay type: organism-based; conditions: in vivo, po, 168 h, time 1 weeks
[19] = Acute toxicity in Kunming mouse assessed as animal mortality at 1000 mg/kg, IG measured for 1 week; assay type: organism-based; conditions: in vivo, po, 168 h, time 1 weeks
in vivo [20] = conditions: Sprague-Dawley, rat, iv, 2 mg/kg
[21] = Apparent volume of distribution in Sprague-Dawley rat at 2 mg/kg, iv measured for 15 to 1440 mins by LC-MS/MS analysis; assay type: ADME, organism-based; conditions: in vivo, time 15-1440 min, read-out: Vz
[22] = Cmax in Sprague-Dawley rat at 2 mg/kg, iv measured for 15 to 1440 mins by LC-MS/MS analysis; assay type: ADME, organism-based; conditions: in vivo, time 15-1440 min
[23] = Acute toxicity in Kunming mouse assessed as signs of sedation at 1000 mg/kg, IG measured for 1 week; assay type: organism-based; conditions: in vivo, po, 168 h, time 1 weeks
[24] = Half life in Sprague-Dawley rat at 2 mg/kg, iv measured for 15 to 1440 mins by LC-MS/MS analysis; assay type: ADME, organism-based; conditions: in vivo, time 15-1440 min
in vivo [25] = conditions: Sprague-Dawley, rat, iv, 2 mg/kg; remark: listed apart in the source
in vitro [26] = conditions: human, liver microsomes
[27] = Acute toxicity in Kunming mouse assessed as signs of appetite loss at 1000 mg/kg, IG measured for 1 week; assay type: organism-based; conditions: in vivo, po, 168 h, time 1 weeks
in vivo [28] = conditions: Sprague-Dawley, rat, po, 20 mg/kg
[29] = Metabolic stability in human plasma assessed as compound remaining at 2 uM incubated upto 120 mins by LC-MS/MS analysis; assay type: ADME, cell-free; conditions: read-out: Stability
[30] = Acute toxicity in Kunming mouse assessed as drug tolerance at 1000 mg/kg, IG measured for 1 week; assay type: organism-based; conditions: in vivo, po, 168 h, time 1 weeks
[31] = Tmax in Sprague-Dawley rat at 20 mg/kg, po measured for 15 to 1440 mins by LC-MS/MS analysis; assay type: ADME, organism-based; conditions: in vivo, time 15-1440 min
in vivo [32] = conditions: Sprague-Dawley, rat, po, 20 mg/kg; remark: listed apart in the source
[33] = Oral bioavailability in Sprague-Dawley rat at 20 mg/kg measured for 15 to 1440 mins by LC-MS/MS analysis; assay type: ADME, organism-based; conditions: in vivo, time 15-1440 min
[34] = Clearance in Sprague-Dawley rat at 2 mg/kg, iv measured for 15 to 1440 mins by LC-MS/MS analysis; assay type: ADME, organism-based; conditions: in vivo, time 15-1440 min
[35] = Metabolic stability in human plasma assessed as half life at 2 uM incubated upto 120 mins by LC-MS/MS analysis; assay type: ADME, cell-free
[36] = Acute toxicity in Kunming mouse assessed as signs of convulsion movements at 1000 mg/kg, IG measured for 1 week; assay type: organism-based; conditions: in vivo, po, 168 h, time 1 weeks
in vitro [37] = conditions: human, liver microsomes; remark: listed apart in the source

CCC(CC)O[C@@H]1C=C(C(=O)O)C[C@H](NCc2ccc(OCc3cccc(B(O)O)c3)cc2F)[C@H]1NC(C)=O
EC50 (Influenza A virus [1]): 26 nM | EC50 (Influenza A virus [2]): 6270 nM | EC50 at 48 h [3]: > 250000 nM | EC50 (Influenza A virus [4]): > 100000 nM | CC50 at 48 h [5]: 170000 nM | IC50 [6]: 38 nM | EC50 (Influenza A virus [7]): 6880 nM | IC50 [8]: 1430 nM

CCC(CC)O[C@@H]1C=C(C(=O)O)C[C@H](NCc2ccc(OCc3cccc(B(O)O)c3)cc2C)[C@H]1NC(C)=O
Activity [9]: Non-toxic | MRT last [10]: 7.8 min | half-life [11]: 78.6 min | MRT inf [12]: 7.8 min | MRT inf [13]: 117 min | MRT last [14]: 48.6 min | Cmax [15]: 10.4 ng/mL | Tmax [16]: 4.98 min | Stability [17]: 112.2% | Activity [18]: Toxic | Activity [19]: Non-toxic | AUC(0-t) (in vivo [20]): 1370 ng·h/mL | Vd [21]: 0.511 L/kg | Cmax [22]: 4850 ng/mL | Activity [23]: Non-toxic | half-life [24]: 15 min | AUC(0-inf) (in vivo [25]): 1380 ng·h/mL | CLint scaled at 2 h (in vitro [26]): 10.1 mL/min/kg | EC50 (Influenza A virus [1]): 8 nM | Activity [27]: Non-toxic | AUC(0-inf) (in vivo [28]): 20.3 ng·h/mL | EC50 (Influenza A virus [2]): 1290 nM | remaining at 2 h, 2 µM [29]: 99.3% | EC50 at 48 h [3]: > 250000 nM | Activity [30]: Non-toxic | Tmax [31]: 1320 min | AUC(0-t) (in vivo [32]): 12.7 ng·h/mL | bioavailability [33]: 0.15% | clearance [34]: 24.8 mL/min/kg | EC50 (Influenza A virus [4]): 67500 nM | CC50 at 48 h [5]: > 200000 nM | half-life at 2 µM [35]: > 289 min | Activity [36]: Non-toxic | microsomal CLint at 2 h (in vitro [37]): 11.2 µL/min/mg | IC50 [6]: 90 nM | EC50 (Influenza A virus [7]): 1270 nM | IC50 [8]: 470 nM

CCC(CC)O[C@@H]1C=C(C(=O)O)C[C@H](NCc2ccc(OCc3ccc(B(O)O)cc3)c(Cl)c2)[C@H]1NC(C)=O
IC50 [6]: 3950 nM | IC50 [8]: 7170 nM

CCC(CC)O[C@@H]1C=C(C(=O)O)C[C@H](NCc2ccc(OCc3ccc(B(O)O)cc3)cc2Cl)[C@H]1NC(C)=O
EC50 (Influenza A virus [1]): 30 nM | EC50 (Influenza A virus [2]): 3570 nM | EC50 at 48 h [3]: > 250000 nM | EC50 (Influenza A virus [4]): 4230 nM | CC50 at 48 h [5]: > 200000 nM | IC50 [6]: 22 nM | EC50 (Influenza A virus [7]): > 40000 nM | IC50 [8]: 120 nM

CCC(CC)O[C@@H]1C=C(C(=O)O)C[C@H](NCc2c(C)cc(OCc3ccc(B(O)O)cc3)cc2C)[C@H]1NC(C)=O
IC50 [6]: 270 nM | IC50 [8]: 740 nM

CCC(CC)O[C@@H]1C=C(C(=O)O)C[C@H](NCc2ccc(OCc3ccc(B(O)O)cc3)cc2F)[C@H]1NC(C)=O
EC50 (Influenza A virus [1]): 29 nM | EC50 (Influenza A virus [2]): 1590 nM | EC50 at 48 h [3]: > 250000 nM | EC50 (Influenza A virus [4]): 18500 nM | CC50 at 48 h [5]: > 500000 nM | IC50 [6]: 87 nM | EC50 (Influenza A virus [7]): 3970 nM | IC50 [8]: 400 nM

CCC(CC)O[C@@H]1C=C(C(=O)O)C[C@H](NCc2c(C)cc(OCc3cccc(B(O)O)c3)cc2C)[C@H]1NC(C)=O
EC50 (Influenza A virus [1]): 14 nM | EC50 (Influenza A virus [2]): 2540 nM | EC50 at 48 h [3]: > 250000 nM | EC50 (Influenza A virus [4]): > 100000 nM | CC50 at 48 h [5]: > 200000 nM | IC50 [6]: 24 nM | EC50 (Influenza A virus [7]): 9120 nM | IC50 [8]: 650 nM

CCC(CC)O[C@@H]1C=C(C(=O)O)C[C@H](NCc2ccc(OCc3cccc(B(O)O)c3)c(F)c2)[C@H]1NC(C)=O
IC50 [6]: 73 nM | IC50 [8]: 1830 nM

CCC(CC)O[C@@H]1C=C(C(=O)O)C[C@H](NCc2ccc(OCc3cccc(B(O)O)c3)c(Cl)c2)[C@H]1NC(C)=O
IC50 [6]: 2780 nM | IC50 [8]: 6660 nM

CCC(CC)O[C@@H]1C=C(C(=O)O)C[C@H](NCc2ccc(OCc3ccc(B(O)O)cc3)cc2C)[C@H]1NC(C)=O
EC50 (Influenza A virus [1]): 11 nM | EC50 (Influenza A virus [2]): 6390 nM | EC50 at 48 h [3]: > 250000 nM | EC50 (Influenza A virus [4]): 10600 nM | CC50 at 48 h [5]: > 200000 nM | IC50 [6]: 74 nM | EC50 (Influenza A virus [7]): 3550 nM | IC50 [8]: 110 nM
